Experimental data as given in patent US10858364B2, “Imidazopyrazine inhibitors of Bruton's tyrosine kinase” (Acerta Pharma B.V., priority 2016, dated 2020).

Key:
JAK3 = JAK3 (Homo sapiens (Human), UniProt P52333); experiment: JAK3 Z'-LYTE kinase assay; format: biochemical; details: 1 h pre-incubation, Km ATP
Description: (§1) BMX, TXK, EGFR, ERBB2, ERBB4, JAK3, BLK kinase activity was measured using the Z′-LYTE assay at Thermo Fisher. A 10-point dose response (final concentration in assay ranged from 10 μM to 0.5 nM in 3-fold dilution per dilution step) was generated with 1 h incubation of the test compound with the kinase prior to initiation of the kinase reaction by the addition of ATP. ATP concentration in the assay was Km ATP for the different kinases. IC50 values are determined by curve fitting of the experimental results at Thermo Fisher.

CYP1A2 = CYP1A2 (Homo sapiens (Human), UniProt P05177)
Chain of CYP1A2 (P05177 whole entry): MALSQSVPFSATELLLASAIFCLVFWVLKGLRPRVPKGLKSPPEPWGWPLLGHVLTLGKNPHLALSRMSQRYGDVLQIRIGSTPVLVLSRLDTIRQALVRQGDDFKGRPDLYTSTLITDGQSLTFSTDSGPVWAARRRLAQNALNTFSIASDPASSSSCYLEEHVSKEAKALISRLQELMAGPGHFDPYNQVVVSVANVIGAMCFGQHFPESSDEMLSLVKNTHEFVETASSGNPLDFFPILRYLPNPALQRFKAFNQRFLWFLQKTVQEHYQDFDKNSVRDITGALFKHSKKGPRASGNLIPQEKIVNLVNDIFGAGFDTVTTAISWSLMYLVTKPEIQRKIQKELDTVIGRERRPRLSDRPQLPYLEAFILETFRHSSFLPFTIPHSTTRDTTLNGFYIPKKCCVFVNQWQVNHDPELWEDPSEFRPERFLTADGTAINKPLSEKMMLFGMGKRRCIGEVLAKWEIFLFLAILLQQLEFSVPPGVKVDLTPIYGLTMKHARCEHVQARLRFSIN

MEK5 = MEK5 (Homo sapiens (Human), UniProt Q13163); experiment: DiscoveRx Kd dose response, MEK5; format: binding
Chain of MEK5 (Q13163 whole entry): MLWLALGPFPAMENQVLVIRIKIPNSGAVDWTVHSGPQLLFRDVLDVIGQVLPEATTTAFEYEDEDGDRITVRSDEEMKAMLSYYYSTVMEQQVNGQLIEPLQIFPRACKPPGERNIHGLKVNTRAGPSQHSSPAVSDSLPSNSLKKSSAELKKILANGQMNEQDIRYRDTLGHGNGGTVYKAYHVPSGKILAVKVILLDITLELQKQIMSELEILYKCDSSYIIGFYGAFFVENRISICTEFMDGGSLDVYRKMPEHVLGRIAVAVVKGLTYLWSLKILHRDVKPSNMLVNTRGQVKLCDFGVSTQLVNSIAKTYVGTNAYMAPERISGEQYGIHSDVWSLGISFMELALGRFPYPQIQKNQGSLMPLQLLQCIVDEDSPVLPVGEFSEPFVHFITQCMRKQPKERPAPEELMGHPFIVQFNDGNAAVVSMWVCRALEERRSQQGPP
Description: (§2) Kinase profiling was performed with M27 was done at DiscoveRx at a single dose of 1 μM on all available kinases (KINOMEscan). The overall kinase selectivity score is in Table 6. […] Kinases inhibited >65% at 1 μM for M27 were followed up with a dose response at DiscoveRx. The M27 had IC50 values <1 μM for almost the same set of kinases with exception of TXK, but with additional inhibition of BRK (PTK6).

CYP3A4/5 = experiment: CYP inhibition, CYP3A4/5; format: in vitro ADME
ERBB2 [1] = biological target: T1, ERBB2 (Homo sapiens (Human), UniProt P04626); experiment: DiscoveRx Kd dose response, ERBB2; format: binding
T1 sequence (P04626 23-1255): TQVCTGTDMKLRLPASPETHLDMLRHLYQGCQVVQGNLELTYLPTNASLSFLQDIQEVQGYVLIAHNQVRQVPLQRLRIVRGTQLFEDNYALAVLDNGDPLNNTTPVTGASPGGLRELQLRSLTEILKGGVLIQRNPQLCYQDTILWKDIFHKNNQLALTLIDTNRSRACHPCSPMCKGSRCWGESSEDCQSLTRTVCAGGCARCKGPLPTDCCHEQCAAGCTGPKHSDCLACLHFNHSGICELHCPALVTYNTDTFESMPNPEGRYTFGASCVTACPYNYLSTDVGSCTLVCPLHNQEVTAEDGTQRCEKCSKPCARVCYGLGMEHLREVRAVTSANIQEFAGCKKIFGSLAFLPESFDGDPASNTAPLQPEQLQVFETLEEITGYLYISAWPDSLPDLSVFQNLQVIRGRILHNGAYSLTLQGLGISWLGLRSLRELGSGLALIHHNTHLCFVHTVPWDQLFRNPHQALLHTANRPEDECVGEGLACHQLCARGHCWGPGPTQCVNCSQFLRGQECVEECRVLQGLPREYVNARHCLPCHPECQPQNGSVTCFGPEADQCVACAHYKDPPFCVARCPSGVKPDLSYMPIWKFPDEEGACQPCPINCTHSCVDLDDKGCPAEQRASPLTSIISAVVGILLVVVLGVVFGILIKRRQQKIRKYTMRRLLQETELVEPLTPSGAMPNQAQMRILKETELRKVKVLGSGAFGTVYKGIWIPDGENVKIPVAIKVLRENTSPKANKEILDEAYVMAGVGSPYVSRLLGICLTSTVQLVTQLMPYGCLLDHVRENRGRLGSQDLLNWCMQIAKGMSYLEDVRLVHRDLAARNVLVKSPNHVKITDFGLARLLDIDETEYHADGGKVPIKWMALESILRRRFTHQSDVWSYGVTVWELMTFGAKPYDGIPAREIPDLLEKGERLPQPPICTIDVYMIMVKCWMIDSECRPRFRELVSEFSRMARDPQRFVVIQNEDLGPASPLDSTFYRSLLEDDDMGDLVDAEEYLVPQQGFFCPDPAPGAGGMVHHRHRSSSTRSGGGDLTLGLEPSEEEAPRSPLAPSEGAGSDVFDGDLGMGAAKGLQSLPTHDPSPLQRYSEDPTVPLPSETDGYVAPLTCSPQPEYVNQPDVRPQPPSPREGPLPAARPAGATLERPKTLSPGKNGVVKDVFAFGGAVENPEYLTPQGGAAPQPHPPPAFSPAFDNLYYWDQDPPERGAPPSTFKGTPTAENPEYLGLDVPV
Description: as §2

[2] = Clinical pharmacokinetics of acalabrutinib and its major metabolite; format: in vivo, human; details: human, in vivo; single oral dose of 100 mg acalabrutinib; read-out: median terminal elimination half-life (t½) (converted)
Source text: The compound of Formula (I) was identified as the major metabolite in plasma with a geometric mean exposure (AUC) approximately 2- to 3-fold higher than the exposure of acalabrutinib.
Acalabrutinib and the major metabolite form a covalent bond with a cysteine residue in the BTK active site, leading to inhibition of BTK enzymatic activity. Acalabrutinib binding with the cysteine residue occurs rapidly and irreversibly and provides high target occupancy at steady state.

[3] = system: all available kinases (KINOMEscan); experiment: KINOMEscan (DiscoveRx scanMAX) profiling, selectivity score; format: binding; details: single dose of 1 μM
Description: as §2

TXK = TXK (Homo sapiens (Human), UniProt P42681); experiment: DiscoveRx Kd dose response, TXK; format: binding
Chain of TXK (P42681 whole entry): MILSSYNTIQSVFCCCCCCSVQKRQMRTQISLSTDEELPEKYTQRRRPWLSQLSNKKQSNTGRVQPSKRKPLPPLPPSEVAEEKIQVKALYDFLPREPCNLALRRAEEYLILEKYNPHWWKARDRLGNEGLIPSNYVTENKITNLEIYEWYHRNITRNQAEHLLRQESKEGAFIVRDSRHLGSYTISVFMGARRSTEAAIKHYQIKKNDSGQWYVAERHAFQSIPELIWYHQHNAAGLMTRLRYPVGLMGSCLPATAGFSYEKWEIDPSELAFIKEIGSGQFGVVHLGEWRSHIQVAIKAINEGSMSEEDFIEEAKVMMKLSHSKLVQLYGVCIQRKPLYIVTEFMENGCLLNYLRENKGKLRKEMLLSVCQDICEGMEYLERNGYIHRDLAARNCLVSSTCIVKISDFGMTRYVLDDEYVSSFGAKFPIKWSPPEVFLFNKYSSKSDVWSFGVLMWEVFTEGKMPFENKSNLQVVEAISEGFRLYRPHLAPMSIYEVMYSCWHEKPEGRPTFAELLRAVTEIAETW
Description: as §2

EGFR = EGFR (Homo sapiens (Human), UniProt P00533); experiment: EGFR Z'-LYTE kinase assay; format: biochemical; details: 1 h pre-incubation, Km ATP
Description: as §1

ERBB2 [4] = biological target: T1, ERBB2; experiment: ERBB2 Z'-LYTE kinase assay; format: biochemical; details: 1 h pre-incubation, Km ATP
Description: as §1

TEC [5] = biological target: T2, TEC (Homo sapiens (Human), UniProt P42680); experiment: TEC LanthaScreen assay; format: binding; details: 2h incubation
T2 sequence (P42680 whole entry): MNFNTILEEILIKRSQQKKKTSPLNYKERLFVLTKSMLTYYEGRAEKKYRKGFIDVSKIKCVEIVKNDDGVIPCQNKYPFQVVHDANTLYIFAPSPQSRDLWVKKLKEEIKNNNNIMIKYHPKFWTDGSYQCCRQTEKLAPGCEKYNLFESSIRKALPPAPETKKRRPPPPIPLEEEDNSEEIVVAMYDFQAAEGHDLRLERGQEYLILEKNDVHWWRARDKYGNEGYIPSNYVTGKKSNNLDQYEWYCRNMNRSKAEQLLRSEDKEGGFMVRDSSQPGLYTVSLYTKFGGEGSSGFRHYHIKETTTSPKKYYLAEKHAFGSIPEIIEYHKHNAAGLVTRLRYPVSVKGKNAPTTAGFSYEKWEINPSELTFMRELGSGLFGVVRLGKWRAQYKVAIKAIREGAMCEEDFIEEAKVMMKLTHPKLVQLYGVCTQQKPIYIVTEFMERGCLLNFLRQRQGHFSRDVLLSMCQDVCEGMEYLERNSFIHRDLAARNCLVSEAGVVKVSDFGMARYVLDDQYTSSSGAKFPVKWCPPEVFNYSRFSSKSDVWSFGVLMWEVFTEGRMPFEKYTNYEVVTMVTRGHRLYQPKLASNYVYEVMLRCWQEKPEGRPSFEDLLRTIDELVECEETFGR
Description: TEC enzyme activity is measured using the LanthaScreen assay from ThermoFisher as outlined below.
TEC enzyme (LifeTech # PV3269) and Eu-anti-HIS antibody (Invitrogen # PV5596) are mixed and diluted in kinase buffer (50 mM Hepes pH 7.5+10 mM MgCl2+1 mM EGTA+0.01% Brij-35) to 3 and 6 nM, respectively. Final concentration in the assay for enzyme and antibody are 1 and 2 nM, respectively.
Tracer (Kinase Tracer 178, Invitrogen # PV5593) is diluted in Kinase buffer to 3 nM. Final concentration in the assay is 1 nM.
Serial dilutions log 10 from 1 mM to 3.16 nM of test compounds are made in 100% DMSO. The dilutions in DMSO are then diluted 33-fold in Kinase buffer (50 mM Hepes pH 7.5+10 mM MgCl2+1 mM EGTA+0.01% Brij-35).
The assay is performed as follows: 5 μL/well of TEC enzyme and EU-anti-His antibody dilution is mixed with 5 μL/well tracer dilution and 5 μL/well of compound dilution in Kinase buffer. Final compound concentration in the assay ranged from 10 μM to 0.316 nM, with 1% DMSO final concentration in assay. Following a 2h incubation at room the TR-FRET signal at 615 nm and 665 nm is read. The ratio 665/615 was used to calculate values expressed as percentage of the difference in readout (S/N) of the controls with and without Tracer. IC50 values were determined by curve fitting of the experimental results in Dotmatics.

TEC [6] = biological target: T2, TEC; experiment: DiscoveRx Kd dose response, TEC; format: binding
Description: as §2

BMX [7] = biological target: T3, BMX (Homo sapiens (Human), UniProt P51813); experiment: BMX Z'-LYTE kinase assay; format: biochemical; details: 1 h pre-incubation, Km ATP
T3 sequence (P51813 whole entry): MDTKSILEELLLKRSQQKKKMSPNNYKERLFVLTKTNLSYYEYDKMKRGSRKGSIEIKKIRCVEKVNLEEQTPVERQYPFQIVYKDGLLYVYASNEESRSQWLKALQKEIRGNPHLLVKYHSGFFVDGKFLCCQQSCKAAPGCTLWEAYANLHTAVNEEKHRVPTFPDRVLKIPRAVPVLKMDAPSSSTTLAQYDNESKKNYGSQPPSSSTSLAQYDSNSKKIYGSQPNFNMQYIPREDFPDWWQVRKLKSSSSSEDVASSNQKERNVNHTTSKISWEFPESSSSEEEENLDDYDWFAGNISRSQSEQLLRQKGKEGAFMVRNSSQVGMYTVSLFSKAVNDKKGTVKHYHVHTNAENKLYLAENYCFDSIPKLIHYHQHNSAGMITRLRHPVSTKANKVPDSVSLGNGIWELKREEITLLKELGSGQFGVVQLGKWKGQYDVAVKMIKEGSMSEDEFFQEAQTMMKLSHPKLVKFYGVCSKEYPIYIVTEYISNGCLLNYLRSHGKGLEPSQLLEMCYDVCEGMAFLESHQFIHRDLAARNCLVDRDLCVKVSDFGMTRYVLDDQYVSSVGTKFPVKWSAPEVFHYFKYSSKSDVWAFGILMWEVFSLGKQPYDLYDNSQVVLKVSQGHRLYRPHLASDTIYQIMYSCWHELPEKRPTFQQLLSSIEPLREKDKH
Description: as §1

BMX [8] = biological target: T3, BMX; experiment: DiscoveRx Kd dose response, BMX; format: binding
Description: as §2

CYP2B6 = CYP2B6 (Homo sapiens (Human), UniProt P20813); experiment: CYP inhibition, CYP2B6; format: in vitro ADME
Chain of CYP2B6 (P20813 whole entry): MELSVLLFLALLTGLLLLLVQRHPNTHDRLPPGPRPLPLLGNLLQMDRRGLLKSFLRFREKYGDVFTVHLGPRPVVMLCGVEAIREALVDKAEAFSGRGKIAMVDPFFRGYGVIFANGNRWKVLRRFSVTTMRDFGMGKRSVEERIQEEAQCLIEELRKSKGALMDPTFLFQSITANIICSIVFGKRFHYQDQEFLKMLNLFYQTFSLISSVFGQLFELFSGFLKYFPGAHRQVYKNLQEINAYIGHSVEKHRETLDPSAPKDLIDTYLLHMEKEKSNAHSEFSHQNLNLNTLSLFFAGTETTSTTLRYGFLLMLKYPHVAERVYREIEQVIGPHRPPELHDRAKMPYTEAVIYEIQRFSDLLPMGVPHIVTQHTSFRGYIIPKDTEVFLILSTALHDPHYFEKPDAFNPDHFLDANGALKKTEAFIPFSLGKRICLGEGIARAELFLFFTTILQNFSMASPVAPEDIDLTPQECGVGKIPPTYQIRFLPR

BRK (PTK6) = BRK (PTK6) (Homo sapiens (Human), UniProt Q13882); experiment: DiscoveRx Kd dose response, BRK (PTK6); format: binding
Chain of BRK (PTK6) (Q13882 whole entry): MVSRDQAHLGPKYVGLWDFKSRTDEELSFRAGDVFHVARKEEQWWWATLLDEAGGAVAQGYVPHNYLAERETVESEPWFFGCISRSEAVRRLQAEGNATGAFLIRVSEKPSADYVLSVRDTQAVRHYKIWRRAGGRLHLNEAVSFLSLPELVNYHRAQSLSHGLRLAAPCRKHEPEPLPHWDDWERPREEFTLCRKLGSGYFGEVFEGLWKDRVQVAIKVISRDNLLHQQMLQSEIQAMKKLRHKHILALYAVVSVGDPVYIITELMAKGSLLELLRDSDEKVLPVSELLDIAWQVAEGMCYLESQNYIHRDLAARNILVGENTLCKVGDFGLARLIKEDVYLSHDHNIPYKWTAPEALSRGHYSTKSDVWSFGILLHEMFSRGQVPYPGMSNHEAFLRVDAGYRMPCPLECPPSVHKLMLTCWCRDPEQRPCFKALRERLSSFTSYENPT
Description: as §2

LIMK1 = LIMK1 (Homo sapiens (Human), UniProt P53667); experiment: DiscoveRx Kd dose response, LIMK1; format: binding
Description: as §2

CC#CC(=O)NCCCC(=O)c1nc(-c2ccc(C(=O)Nc3ccccn3)cc2)c2c(N)nccn12 [Formula (I), 4-(8-amino-3-(4-(but-2-ynamido)butanoyl)imidazo[1,5-a]pyrazin-1-yl)-N-(pyridin-2-yl)benzamide]
IC50 (JAK3): > 10000 nM | CYP1A2 inhibition (CYP1A2): does not inhibit | Kd (MEK5): 69 nM | CYP3A4/5 inhibition (CYP3A4/5): does not inhibit | Kd (ERBB2 [1]): 120 nM | half-life [2]: 6.9 h | Selectivity Score S(10) [3]: 0.005 | Selectivity Score S(35) [3]: 0.013 | Kd (TXK): 1100 nM | IC50 (EGFR): > 10000 nM | IC50 (ERBB2 [4]): 552 ± 166 nM | IC50 (TEC [5]): 345 ± 34 nM | Kd (TEC [6]): 40 nM | IC50 (BMX [7]): 15 ± 2 nM | Kd (BMX [8]): 190 nM | CYP2B6 inhibition (CYP2B6): does not inhibit | Kd (BRK (PTK6)): 150 nM | Kd (LIMK1): 400 nM
